US20210369693A1, “METHODS AND PHARMACEUTICAL COMPOSITIONS FOR THE TREATMENT OF NON-ALCOHOLIC STEATOHEPATITIS” (Eiger Biopharmaceuticals, Inc., priority 2017, published 2021)
Values after ≈ are worked out from the molar mass of the structure shown.

Assays:
[1] = cited from earlier work
[2] = system: advanced NASH; conditions: after a year of treatment; cited from earlier work
[3] = system: animal model of NASH; test: Animal model of NASH (hypothesized); assay type: in vivo
Excerpt: Accordingly, in one aspect, methods of treating one or more symptoms of NAFLD and/or NASH, such as hepatocyte ballooning, steatosis, and lobular inflammation, are provided. […] Thus, in some embodiments, administration of pirfenidone as described herein is hypothesized to decrease ballooning and measurably lower plasma and/or liver CK-18 levels in as few as 3 to 12 weeks after treatment initiation. In some embodiments, it is hypothesized that continued daily administration of pirfenidone is efficacious in decreasing inflammation and fibrosis in NASH within 2 to 72 weeks after treatment initiation. In some embodiments, it is hypothesized that treatment with pirfenidone results in an improvement in one or more parameters such as improved ALT enzyme levels, decreased inflammation, decreased steatosis, reduced severity of NASH symptoms, reduced levels of NASH biomarkers such as CK-18, or the slowing, stopping, or reversing of liver fibrosis.

## CC(C)C[C@H](NC(=O)[C@@H](O)[C@H](N)Cc1ccccc1)C(=O)O [Ubenimex, (2S)-2-[[(2S,3R)-3-amino-2-hydroxy-4-phenylbutanoyl]amino]-4-methylpentanoic acid]
[1]; water
  solubility in water: 1270 µg/mL (≈ 4.12 mM)

## CCCCOCCOc1ccc(-c2ccc3c(c2)/C=C(/C(=O)Nc2ccc([S@@+]([O-])Cc4cncn4CCC)cc2)CCCN3CC(C)C)cc1 [cenicriviroc]
[2]
  primary endpoint of improving inflammation and liver damage: failed to meet its primary endpoint

## Cc1ccc(=O)n(-c2ccccc2)c1 [pirfenidone, 5-methyl-1-phenyl-2-1-(H)-pyridone]
[3]; animal model of NASH
  hepatocyte ballooning: demonstrates efficacy in slowing and preventing hepatocyte ballooning
  lobular inflammation: reduces
  steatosis: reduces steatosis
[3]; relative to control animals
  plasma CK-18 levels: decline significantly
[1]; methanol, ethyl alcohol, acetone, chloroform vs water and 1.0 N HCl
  relative solubility in solvents: more soluble in methanol, ethyl alcohol, acetone and chloroform than in water and 1.0 N HCl
